Measurements from US10611740B2, “Aryl dihydro-2H-benzo[b][1,4]oxazine sulfonamide and related compounds for use as agonists of RORγ and the treatment of disease” (Lycera Corporation, priority 2015, dated 2020).
One block for each compound: values may come before it.

How the values were obtained:
RORγ-LBD = biological target: T1, RORγ-LBD (Homo sapiens, UniProt P51449); assay: RORγ-Ligand Binding Domain (LBD) TR-FRET Assay; assay type: biochemical;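 as to TR-FRET Assay Max Response: 665/615 nm ratio relative to signal without ursolic acid or compound set at 100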
T1 construct: made in house; host or cells: SF9 cells (baculovirus)
T1 sequence (P51449 269-508 limits assumed): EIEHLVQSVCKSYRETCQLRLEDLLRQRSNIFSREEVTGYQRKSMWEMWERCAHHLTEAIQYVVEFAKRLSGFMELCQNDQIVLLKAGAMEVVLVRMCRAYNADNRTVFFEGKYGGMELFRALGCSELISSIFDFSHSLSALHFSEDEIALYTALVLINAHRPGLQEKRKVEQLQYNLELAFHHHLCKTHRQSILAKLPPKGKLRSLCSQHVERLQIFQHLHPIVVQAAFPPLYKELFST
Procedure, shortened: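 His-tagged RORγ-LBD from SF9 baculovirus lysate, ~3 nM final, in 50 mM Tris pH 7.0, 50 mM KCl, 1 mM EDTA, 0.1 mM DTT, 0.01% BSA. Biotinylated SRC1 LXXLL peptide at 200 nM final with 2 μM ursolic acid; TR-FRET read-out, 1% DMSO final.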

Gal4-RORγ-LBD = biological target: T2, Gal4-RORγ-LBD (Homo sapiens, UniProt P51449); assay: Gal4-RORγ Luciferase Reporter Assay in HEK-293T Cells; assay type: cell-based; settings: HEK-293 cells, luciferase reporter, with 2 μM ursolic acid
T2 construct: expressed in transfected cells; host or cells: HEK-293 cells (pcDNA3.1neo plasmid)
T2 sequence (P51449 269-508 limits assumed): T1 sequence (P51449 269-508 limits assumed)
Procedure, shortened: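 HEK-293 cells were transiently co-transfected with Gal4-RORγ-LBD and pGL4.31 Gal4-luciferase, with ursolic acid added at 2 μM final. Compounds were incubated overnight at 37° C. in 0.2% DMSO and luminescence read with One-Glo. Max Response is the upper plateau of a 4-parameter logistic fit, with signal lacking ursolic acid or compound set to 100.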

SMILES: COc1cc(S(=O)(=O)N2C[C@H](CCc3n[nH]c(=O)o3)Oc3ccc(-c4cc(F)ccc4F)cc32)ccc1F [Compound 28J, (S)-5-(2-(6-(2,5-difluorophenyl)-4-((4-fluoro-3-methoxyphenyl)-sulfonyl)-3,4-dihydro-2H-benzo[b][1,4]oxazin-2-yl)ethyl)-1,3,4-oxadiazol-2(3H)-one]
EC50 (RORγ-LBD): < 500 nM | TR-FRET Assay Max Response (RORγ-LBD): **** (The symbol “****” indicates a value greater than 200) | EC50 (Gal4-RORγ-LBD): < 500 nM | Gal4-RORγ Assay Max Response (Gal4-RORγ-LBD): ** (The symbol “**” indicates a value in the range of greater than 90 to 150)

SMILES: COc1cc(S(=O)(=O)N2C[C@H](CCc3n[nH]c(=O)o3)Oc3ccc(-c4cccc(C(F)(F)F)n4)cc32)ccc1F [Compound 28K, (S)-5-(2-(4-((4-fluoro-3-methoxyphenyl)sulfonyl)-6-(6-(trifluoromethyl)pyridin-2-yl)-3,4-dihydro-2H-benzo[b][1,4]oxazin-2-yl)ethyl)-1,3,4-oxadiazol-2(3H)-one]
EC50 (RORγ-LBD): < 500 nM | TR-FRET Assay Max Response (RORγ-LBD): **** (The symbol “****” indicates a value greater than 200) | EC50 (Gal4-RORγ-LBD): < 500 nM | Gal4-RORγ Assay Max Response (Gal4-RORγ-LBD): ** (The symbol “**” indicates a value in the range of greater than 90 to 150)

SMILES: CC(C)(O)C(=O)NCC[C@H]1CN(S(=O)(=O)c2cccc(C(F)(F)F)c2)c2cc(-c3cc(F)ccc3F)ccc2O1 [Compound 29, (S)—N-(2-(6-(2,5-difluorophenyl)-4-((3-(trifluoromethyl)phenyl)sulfonyl)-3,4-dihydro-2H-benzo[b][1,4]oxazin-2-yl)ethyl)-2-hydroxy-2-methylpropanamide]
EC50 (RORγ-LBD): < 500 nM | TR-FRET Assay Max Response (RORγ-LBD): **** (The symbol “****” indicates a value greater than 200) | EC50 (Gal4-RORγ-LBD): < 500 nM | Gal4-RORγ Assay Max Response (Gal4-RORγ-LBD): ** (The symbol “**” indicates a value in the range of greater than 90 to 150)

SMILES: CN(C)c1cccc(-c2ccc3c(c2)N(S(=O)(=O)c2cccc(C(F)(F)F)c2)C[C@H](CCNC(=O)C(C)(C)O)O3)n1 [Compound 30A, (S)-N-(2-(6-(6-(dimethylamino)-pyridin-2-yl)-4-((3-(trifluoro-methyl)phenyl)sulfonyl)-3,4-dihydro-2H-benzo[b][1,4]-oxazin-2-yl)ethyl)-2-hydroxy-2-methylpropanamide]
EC50 (RORγ-LBD): < 500 nM | TR-FRET Assay Max Response (RORγ-LBD): **** (The symbol “****” indicates a value greater than 200) | EC50 (Gal4-RORγ-LBD): < 500 nM | Gal4-RORγ Assay Max Response (Gal4-RORγ-LBD): * (The symbol “*” indicates a value in the range of 25 to 90)

SMILES: O=C1CC(C(=O)NC[C@H]2CN(S(=O)(=O)c3cccc(C(F)(F)F)c3)c3cc(-c4cc(F)ccc4F)ccc3O2)C1 [Compound 30AA, (S)-N-((6-(2,5-difluorophenyl)-4-((3-(trifluoromethyl)phenyl)-sulfonyl)-3,4-dihydro-2H-benzo[b][1,4]oxazin-2-yl)methyl)-3-oxocyclobutane-1-carboxamide]
EC50 (RORγ-LBD): < 500 nM | TR-FRET Assay Max Response (RORγ-LBD): **** (The symbol “****” indicates a value greater than 200) | EC50 (Gal4-RORγ-LBD): < 500 nM | Gal4-RORγ Assay Max Response (Gal4-RORγ-LBD): * (The symbol “*” indicates a value in the range of 25 to 90)

SMILES: O=C(CC1CC1)NC[C@H]1CN(S(=O)(=O)c2cccc(C(F)(F)F)c2)c2cc(-c3cc(F)ccc3F)ccc2O1 [Compound 30AB, (S)-2-cyclopropyl-N-((6-(2,5-difluorophenyl)-4-((3-(trifluoromethyl)phenyl)sulfonyl)-3,4-dihydro-2H-benzo[b][1,4]oxazin-2-yl)methyl)acetamide]
EC50 (RORγ-LBD): < 500 nM | TR-FRET Assay Max Response (RORγ-LBD): **** (The symbol “****” indicates a value greater than 200) | EC50 (Gal4-RORγ-LBD): < 500 nM | Gal4-RORγ Assay Max Response (Gal4-RORγ-LBD): * (The symbol “*” indicates a value in the range of 25 to 90)

SMILES: O=C(NC[C@H]1CN(S(=O)(=O)c2cccc(C(F)(F)F)c2)c2cc(-c3cc(F)ccc3F)ccc2O1)c1cn[nH]c1 [Compound 30AC, (S)-N-((6-(2,5-difluorophenyl)-4-((3-(trifluoromethyl)phenyl)-sulfonyl)-3,4-dihydro-2H-benzo[b][1,4]oxazin-2-yl)methyl)-1H-pyrazole-4-carboxamide]
EC50 (RORγ-LBD): < 500 nM | TR-FRET Assay Max Response (RORγ-LBD): **** (The symbol “****” indicates a value greater than 200) | EC50 (Gal4-RORγ-LBD): 500 to 5000 nM | Gal4-RORγ Assay Max Response (Gal4-RORγ-LBD): * (The symbol “*” indicates a value in the range of 25 to 90)

Further lines, with some results ahead:

EC50 (RORγ-LBD): < 500 nM | EC50 (Gal4-RORγ-LBD): < 500 nM
SMILES: O=C(NC[C@H]1CN(S(=O)(=O)c2cccc(C(F)(F)F)c2)c2cc(-c3cc(F)ccc3F)ccc2O1)c1cc[nH]n1 [Compound 30AD, (S)-N-((6-(2,5-difluorophenyl)-4-((3-(trifluoromethyl)phenyl)-sulfonyl)-3,4-dihydro-2H-benzo[b][1,4]oxazin-2-yl)methyl)-1H-pyrazole-3-carboxamide]
TR-FRET Assay Max Response (RORγ-LBD): **** (The symbol “****” indicates a value greater than 200) | Gal4-RORγ Assay Max Response (Gal4-RORγ-LBD): * (The symbol “*” indicates a value in the range of 25 to 90)

EC50 (RORγ-LBD): < 500 nM | EC50 (Gal4-RORγ-LBD): < 500 nM
SMILES: C[C@H](O)C(=O)NC[C@H]1CN(S(=O)(=O)c2cccc(C(F)(F)F)c2)c2cc(-c3cc(F)ccc3F)ccc2O1 [Compound 30AE, (S)-N-(((S)-6-(2,5-difluoro-phenyl)-4-((3-(trifluoromethyl)-phenyl)sulfonyl)-3,4-dihydro-2H-benzo[b][1,4]oxazin-2-yl)-methyl)-2-hydroxypropanamide]
TR-FRET Assay Max Response (RORγ-LBD): *** (The symbol “***” indicates a value in the range of greater than 150 to 200) | Gal4-RORγ Assay Max Response (Gal4-RORγ-LBD): ** (The symbol “**” indicates a value in the range of greater than 90 to 150)

EC50 (RORγ-LBD): < 500 nM | EC50 (Gal4-RORγ-LBD): < 500 nM
SMILES: C[C@@H](O)C(=O)NC[C@H]1CN(S(=O)(=O)c2cccc(C(F)(F)F)c2)c2cc(-c3cc(F)ccc3F)ccc2O1 [Compound 30AF, (R)-N-(((S)-6-(2,5-difluoro-phenyl)-4-((3-(trifluoromethyl)-phenyl)sulfonyl)-3,4-dihydro-2H-benzo[b][1,4]oxazin-2-yl)-methyl)-2-hydroxypropanamide]
TR-FRET Assay Max Response (RORγ-LBD): *** (The symbol “***” indicates a value in the range of greater than 150 to 200) | Gal4-RORγ Assay Max Response (Gal4-RORγ-LBD): ** (The symbol “**” indicates a value in the range of greater than 90 to 150)

EC50 (RORγ-LBD): < 500 nM | EC50 (Gal4-RORγ-LBD): < 500 nM
SMILES: O=C(NC[C@H]1CN(S(=O)(=O)c2cccc(C(F)(F)F)c2)c2cc(-c3cc(F)ccc3F)ccc2O1)C1(O)CC1 [Compound 30AG, (S)-N-((6-(2,5-difluorophenyl)-4-((3-(trifluoromethyl)phenyl)-sulfonyl)-3,4-dihydro-2H-benzo[b][1,4]oxazin-2-yl)methyl)-1-hydroxycyclo-propane-1-carboxamide]
TR-FRET Assay Max Response (RORγ-LBD): *** (The symbol “***” indicates a value in the range of greater than 150 to 200) | Gal4-RORγ Assay Max Response (Gal4-RORγ-LBD): ** (The symbol “**” indicates a value in the range of greater than 90 to 150)

EC50 (RORγ-LBD): < 500 nM | EC50 (Gal4-RORγ-LBD): < 500 nM
SMILES: Cn1cc(C(=O)NC[C@H]2CN(S(=O)(=O)c3cccc(C(F)(F)F)c3)c3cc(-c4cc(F)ccc4F)ccc3O2)cn1 [Compound 30AH, (S)-N-((6-(2,5-difluorophenyl)-4-((3-(trifluoromethyl)phenyl)-sulfonyl)-3,4-dihydro-2H-benzo[b][1,4]oxazin-2-yl)methyl)-1-methyl-1H-pyrazole-4-carboxamide]
TR-FRET Assay Max Response (RORγ-LBD): *** (The symbol “***” indicates a value in the range of greater than 150 to 200) | Gal4-RORγ Assay Max Response (Gal4-RORγ-LBD): ** (The symbol “**” indicates a value in the range of greater than 90 to 150)

EC50 (RORγ-LBD): < 500 nM | EC50 (Gal4-RORγ-LBD): < 500 nM
SMILES: Cn1ccc(C(=O)NC[C@H]2CN(S(=O)(=O)c3cccc(C(F)(F)F)c3)c3cc(-c4cc(F)ccc4F)ccc3O2)n1 [Compound 30AI, (S)-N-((6-(2,5-difluorophenyl)-4-((3-(trifluoromethyl)phenyl)-sulfonyl)-3,4-dihydro-2H-benzo[b][1,4]oxazin-2-yl)methyl)-1-methyl-1H-pyrazole-3-carboxamide]
TR-FRET Assay Max Response (RORγ-LBD): *** (The symbol “***” indicates a value in the range of greater than 150 to 200) | Gal4-RORγ Assay Max Response (Gal4-RORγ-LBD): ** (The symbol “**” indicates a value in the range of greater than 90 to 150)

EC50 (RORγ-LBD): < 500 nM | EC50 (Gal4-RORγ-LBD): < 500 nM
SMILES: O=C(NC[C@H]1CN(S(=O)(=O)c2cccc(C(F)(F)F)c2)c2cc(-c3cc(F)ccc3F)ccc2O1)c1cocn1 [Compound 30AJ, (S)-N-((6-(2,5-difluorophenyl)-4-((3-(trifluoromethyl)phenyl)-sulfonyl)-3,4-dihydro-2H-benzo[b][1,4]oxazin-2-yl)methyl)oxazole-4-carboxamide]
TR-FRET Assay Max Response (RORγ-LBD): **** (The symbol “****” indicates a value greater than 200) | Gal4-RORγ Assay Max Response (Gal4-RORγ-LBD): ** (The symbol “**” indicates a value in the range of greater than 90 to 150)

EC50 (RORγ-LBD): < 500 nM | EC50 (Gal4-RORγ-LBD): 500 to 5000 nM
SMILES: O=C(NC[C@H]1CN(S(=O)(=O)c2cccc(C(F)(F)F)c2)c2cc(-c3cc(F)ccc3F)ccc2O1)c1cnco1 [Compound 30AK, (S)-N-((6-(2,5-difluorophenyl)-4-((3-(trifluoromethyl)phenyl)-sulfonyl)-3,4-dihydro-2H-benzo[b][1,4]oxazin-2-yl)methyl)oxazole-5-carboxamide]
TR-FRET Assay Max Response (RORγ-LBD): **** (The symbol “****” indicates a value greater than 200) | Gal4-RORγ Assay Max Response (Gal4-RORγ-LBD): ** (The symbol “**” indicates a value in the range of greater than 90 to 150)
